# PubChem BioAssay AID1963831 (Molecular Pharmacology Branch, DTP, NCI, 2024)
# Tested on: 889142-216-R-J1-PDC complex spheroid viability
# Assay: Anticancer human tumor 889142-216-R-J1-PDC patient-derived bladder carcinoma cell line growth inhibition [POLQ]
# Conditions: for IC50: curve of first compound; for viability, T/C: stronger effect = lower value
# Procedure: Multicellular complex tumor spheroid response to Polymerase (POL) inhibitors (novobiocin, ART-558, RP6685) in combination with a variety of drugs and investigational agents in selected tumor cell lines
# The POL inhibitors (novobiocin, ART-558, and RP6685) were evaluated both individually and in combination with standard of care and investigational anticancer small molecules within a complex spheroid model of solid tumors. . Complex spheroids include a stromal component modeled by human endothelial cells (HUVEC) and fibroblasts modeled by human mesenchymal stem cells (MSCs). The concentration ranges selected for each drug and investigational agent were based upon clinically achievable concentrations if the clinical Cmax of the agent was known.
# Compounds. The drugs and investigational agents: novobiocin (NSC847541), ART-558 (NSC835418), RP-6685 (NSC848927), peposertib (NSC802822), ceralasertib (NSC780249), elimusertib (NSC800525), camonsertib (NSC841442), AZD-1390 (NSC803789), olaparib (NSC753686), talazoparib (NSC767125), rucaparib (NSC756644), sotorasib (NSC818433), MRTX-1133 (NSC836407), SN-38 (NSC673596), topotecan (NSC609699), epotoside (NSC141540), doxorubicin (NSC123127), gemcitabine (NSC613327), 5-fluorouracil (NSC19893), paclitaxel (NSC125973), vemurafenib (NSC761431), MSA-2 (NSC828583), SN-011 (NSC837082), adavosertib (NSC754352), prexasertib (NSC758257), carboplatin (NSC241240) and oxaliplatin (NSC266046), were obtained from the National Cancer Institute (NCI) Developmental Therapeutics Program Chemical Repository (21). The FDA-approved anticancer drug set is available from the Developmental Therapeutics Program at https://dtp.cancer.gov/organization/dscb/obtaining/. […] The stock solutions were prepared in dimethyl sulfoxide (DMSO, Sigma-Aldrich, St. Louis, MO, cat. D2650), except for the platinum compounds which were prepared in saline (Quality Biological, Gaithersburg, MD, cat. 114-055-101), at 800-fold the tested concentration and stored at -70 degrees C prior to their use. All drugs and investigational agents were tested over a range starting from a high concentration at or near the clinical Cmax and decreasing in half-log increments. If the clinical Cmax for an agent had not been determined, the highest concentration tested was 10 microM, except for SN-38, which was tested at a high concentration of 1 microM.
# Cell Culture. All cells were maintained in an incubator at 37 degrees C and 5% CO2 with 95% humidity. The PDC lines were cultured according to standard operating procedures established by the NCI PDMR (https://pdmr.cancer.gov). Table 3 of the manuscript, lists the cell lines along with the number of the three cell types plated to form the mct-spheroids and media for tumor cell growth. After thawing, all PDC lines, except 997537-175-T-J1-PDC and 415267-285-R-J2-PDC, were cultured in Matrigel-coated flasks prepared with a working solution of 1X Ham's F-12 nutrient mix, without supplementation (Thermo Fisher Scientific, cat. 11765054), 100 U/mL penicillin-streptomycin (Thermo Fisher Scientific, cat. 15140122), and 2.5% Matrigel (Corning Inc., Corning, NY, cat. 354248) for the first three passages. The two PDC lines 997537-175-T-J1-PDC and 415267-285-R-J2-PDC were cultured on uncoated flasks. The 857933-349-R-J2-PDC line was cultured in 6C/Colon 1B media containing advanced DMEM/F-12 (Thermo Fisher Scientific, cat. 12634028), 10 mM HEPES (Thermo Fisher Scientific, cat. 15630080), 1X GlutaMAX supplement (Thermo Fisher Scientific, cat. 35050061), 0.1 mg/mL primocin (InvivoGen, San Diego, CA, cat. ant-pm-2), 10% defined fetal bovine serum, heat inactivated (HyClone Laboratories Inc., Logan, UT, cat. SH30070.03HI), 50% L-WRN conditioned media (ATCC, cat. CRL-3276), 1.25 mM N-Acetyl-L-cysteine (Sigma-Aldrich, cat. A9165), 10 mM nicotinamide (Sigma-Aldrich, cat. N0636), 1X B-27 supplement (Thermo Fisher Scientific, cat. 17504044), 1X N-2 supplement (Thermo Fisher Scientific, cat. […]
# [1] = second compound 0.0316 µM, first compound 0.0316 µM
# [2] = second compound 0.0316 µM, first compound 0.1 µM
# [3] = second compound 0.0316 µM, first compound 0.316 µM
# [4] = second compound 0.0316 µM, first compound 1 µM
# [5] = second compound 0.0316 µM, first compound 3.16 µM
# [6] = second compound 0.0316 µM, first compound 10 µM
# [7] = second compound 0.1 µM, first compound 0.0316 µM
# [8] = second compound 0.1 µM, first compound 0.1 µM
# [9] = second compound 0.1 µM, first compound 0.316 µM
# [10] = second compound 0.1 µM, first compound 1 µM
# [11] = second compound 0.1 µM, first compound 3.16 µM
# [12] = second compound 0.1 µM, first compound 10 µM
# [13] = second compound 0.316 µM, first compound 0.0316 µM
# [14] = second compound 0.316 µM, first compound 0.1 µM
# [15] = second compound 0.316 µM, first compound 0.316 µM
# [16] = second compound 0.316 µM, first compound 1 µM
# [17] = second compound 0.316 µM, first compound 3.16 µM
# [18] = second compound 0.316 µM, first compound 10 µM
# [19] = second compound 1 µM, first compound 0.0316 µM
# [20] = second compound 1 µM, first compound 0.1 µM
# [21] = second compound 1 µM, first compound 0.316 µM
# [22] = second compound 1 µM, first compound 1 µM
# [23] = second compound 1 µM, first compound 3.16 µM
# [24] = second compound 1 µM, first compound 10 µM
# [25] = second compound 3.16 µM, first compound 0.0316 µM
# [26] = second compound 3.16 µM, first compound 0.1 µM
# [27] = second compound 3.16 µM, first compound 0.316 µM
# [28] = second compound 3.16 µM, first compound 1 µM
# [29] = second compound 3.16 µM, first compound 3.16 µM
# [30] = second compound 3.16 µM, first compound 10 µM
# [31] = second compound 10 µM, first compound 0.0316 µM
# [32] = second compound 10 µM, first compound 0.1 µM
# [33] = second compound 10 µM, first compound 0.316 µM
# [34] = second compound 10 µM, first compound 1 µM
# [35] = second compound 10 µM, first compound 3.16 µM
# [36] = second compound 10 µM, first compound 10 µM
# 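Note: spheroids exposed to compounds for seven days.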
# 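Throughout, for viability, T/C: 100% = DMSO vehicle control viability.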
structure (smiles),measurement,setting,value
Nc1ccn(C2OC(CO)C(O)C2(F)F)c(=O)n1 (centres undefined) + COC1C(OC(N)=O)C(O)C(Oc2ccc3c(O)c(NC(=O)c4ccc(O)c(CC=C(C)C)c4)c(=O)oc3c2C)OC1(C)C,IC50,second compound 0.0316 µM,830 nM
same,IC50,second compound 0.1 µM,225 nM
same,IC50,second compound 0.316 µM,202 nM
same,IC50,second compound 1 µM,250 nM
same,IC50,second compound 3.16 µM,180 nM
same,IC50,second compound 10 µM,533 nM
same,"viability, T/C",[1],60.8%
same,"viability, T/C",[2],49.5%
same,"viability, T/C",[3],51.2%
same,"viability, T/C",[4],49.7%
same,"viability, T/C",[5],43.4%
same,"viability, T/C",[6],27.4%
same,"viability, T/C",[7],78.2%
same,"viability, T/C",[8],60%
same,"viability, T/C",[9],41%
same,"viability, T/C",[10],43.5%
same,"viability, T/C",[11],42.4%
same,"viability, T/C",[12],28.4%
same,"viability, T/C",[13],68.4%
same,"viability, T/C",[14],56.6%
same,"viability, T/C",[15],44.5%
same,"viability, T/C",[16],38.9%
same,"viability, T/C",[17],43.5%
same,"viability, T/C",[18],31.8%
same,"viability, T/C",[19],64.5%
same,"viability, T/C",[20],58.3%
same,"viability, T/C",[21],45.5%
same,"viability, T/C",[22],42.1%
same,"viability, T/C",[23],37.6%
same,"viability, T/C",[24],30.3%
same,"viability, T/C",[25],64.5%
same,"viability, T/C",[26],52.4%
same,"viability, T/C",[27],43.7%
same,"viability, T/C",[28],43.7%
same,"viability, T/C",[29],38.1%
same,"viability, T/C",[30],31.4%
same,"viability, T/C",[31],72.5%
same,"viability, T/C",[32],60.2%
same,"viability, T/C",[33],52.7%
same,"viability, T/C",[34],45.3%
same,"viability, T/C",[35],42.6%
same,"viability, T/C",[36],30.5%
O=C(c1cc(Cc2n[nH]c(=O)c3ccccc23)ccc1F)N1CCN(C(=O)C2CC2)CC1 + COC1C(OC(N)=O)C(O)C(Oc2ccc3c(O)c(NC(=O)c4ccc(O)c(CC=C(C)C)c4)c(=O)oc3c2C)OC1(C)C,IC50,second compound 0.0316 µM,> 10000 nM
same,IC50,second compound 0.1 µM,> 10000 nM
same,IC50,second compound 0.316 µM,> 10000 nM
same,IC50,second compound 1 µM,> 10000 nM
same,IC50,second compound 3.16 µM,> 10000 nM
same,IC50,second compound 10 µM,> 10000 nM
same,"viability, T/C",[1],93%
same,"viability, T/C",[2],92.2%
same,"viability, T/C",[3],77.2%
same,"viability, T/C",[4],103%
same,"viability, T/C",[5],71%
same,"viability, T/C",[6],68.6%
same,"viability, T/C",[7],101%
same,"viability, T/C",[8],117%
same,"viability, T/C",[9],104%
same,"viability, T/C",[10],109%
same,"viability, T/C",[11],80.5%
same,"viability, T/C",[12],83.5%
same,"viability, T/C",[13],94.4%
same,"viability, T/C",[14],111%
same,"viability, T/C",[15],114%
same,"viability, T/C",[16],102%
same,"viability, T/C",[17],95.5%
same,"viability, T/C",[18],72%
same,"viability, T/C",[19],122%
same,"viability, T/C",[20],116%
same,"viability, T/C",[21],109%
same,"viability, T/C",[22],79.3%
same,"viability, T/C",[23],82.5%
same,"viability, T/C",[24],65.5%
same,"viability, T/C",[25],123%
same,"viability, T/C",[26],109%
same,"viability, T/C",[27],104%
same,"viability, T/C",[28],101%
same,"viability, T/C",[29],78.4%
same,"viability, T/C",[30],75.5%
same,"viability, T/C",[31],129%
same,"viability, T/C",[32],106%
same,"viability, T/C",[33],84.4%
same,"viability, T/C",[34],84.8%
same,"viability, T/C",[35],103%
same,"viability, T/C",[36],77.9%
